US20240156764A1, “INHIBITION OF URACIL DNA GLYCOSYLASE IN THE OPEN CONFORMATION” (CASE WESTERN RESERVE UNIVERSITY, priority 2022, published 2024)
“Also recorded” adds a separate entry of the source.

Legend:
human UDG = human UDG (Homo sapiens, UniProt P13051); assay: Differential scanning fluorimetry (nanoDSF), intrinsic tryptophan fluorescence and scattering; type: binding; parameters: Full-length UDG at 14 μM in 137 mM NaCl
Description: The data for thermophoresis was recorded at 20° C. using the blue LED at 20% and IR-Laser at 40%. The isotherm derived from the raw data and fitted according to the law of mass action. […] Then 2 μL of 10× Sypro dye and 2 μL of ddH20 (Applied biosystems cat #4461141) were added. Monitoring of fluorescence took place for 2 hr (Bioraid CFX96, Hex filter, 25-97° C., 1.6° C./2 min). Negative (−) derivative RFU raw data and plots from the machine were obtained and analyzed. […] Melting temperature (Tm) value was taken directly from the midpoint on the −dRFU/dt vs. temperature graph. Each point on the graph represents an average of three data sets. Y error bars represent the standard deviation.
Differential scanning fluorimetry (DSF) measurements were performed on a Prometheus NT.48 instrument (NanoTemper Technologies, Munich, Germany). […] The capillaries were filled with 10 μL sample and placed on the sample holder. A temperature gradient of 1° C.·min^−1 from 25 to 90° C. was applied and the intrinsic protein fluorescence at 330 and 350 nm was recorded. Additional aggregation onset temperatures are detected via back-reflection light scattering. […] Therefore, analysis of single wavelength was used to determine the melting temperature.

[1] = molecular target: T1, UDG in human DLD1 colon cancer cell lysate (Homo sapiens, UniProt P13051); assay: DNA cleavage assay with cell-free protein extracts from DLD1 cells; type: biochemical
T1 construct: IC50 in DLD1 UDG containing cell lysate; other: estimated; effect on 23mer ssDNA generation; DLD1 cell extracts; extracts where UDG was present
T1 sequence (P13051 45-313 limits assumed): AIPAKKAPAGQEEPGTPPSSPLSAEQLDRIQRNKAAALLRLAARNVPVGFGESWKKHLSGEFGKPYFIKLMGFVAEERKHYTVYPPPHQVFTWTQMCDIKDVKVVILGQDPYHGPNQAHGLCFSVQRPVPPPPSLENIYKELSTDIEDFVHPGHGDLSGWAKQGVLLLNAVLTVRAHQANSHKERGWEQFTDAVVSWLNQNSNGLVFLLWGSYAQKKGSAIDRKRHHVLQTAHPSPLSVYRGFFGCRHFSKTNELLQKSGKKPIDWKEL
Description: A: human cancer lysates were extracted from DLD1 human colon cancer cell lines. […] 20% polyacrylamide nucleic acid urea gel electrophoresis was used to resolve the DNA bands at room temperature, 200 v for 50 min. DNA products were visualized using a Typhoon Trio+Variable Mode Imager (Amersham Biosciences) with excitation and emission wavelengths set to 532 nm and 585 nm respectively, PMT set to 400, and pixel size resolution set to 100 μm. […] Either uracil DNA (U:A bp) or thymidine DNA (T:A bp) was added to initiate the reaction and incubated for additional 20 min at 37° C. 20% polyacrylamide nucleic acid urea gel electrophoresis was used to resolve the DNA bands. Gel data were analyzed using ImageJ software. DNA bands were corrected using a constant background band intensity subtraction step. Then, percent cleavage was calculated by using fluorescence intensity of the cleaved 23-mer DNA strand divided by the sum of the fluorescence bands (23mer+40mer DNA).
The reaction was pre-incubated for 20 min at 37° C. before a fluorescently-labeled TAMRA DNA duplex oligo containing a single U:A bp (final 30 nM) was added to each reaction well with a total reaction volume of 50 μL/well. Plate was further incubated for 20 min at 37° C. 5 μL of a denaturing loading dye (20 mg of bromophenol blue, 9.7 ml of formamide plus 300 μL of 10M NaOH) was added to stop each reaction. DNA products from each reaction were resolved on a 20% denaturing polyacrylamide nucleic acid urea gel (5.3 grams of urea was dissolved in 2.3 mL of 5×TBE, 5 mL of 40% bis-acrylamide 29:1 solution). 5×TBE buffer was prepared by dissolving 54 grams of tris base, 28 grams of boric acid, and 4.5 grams of EDTA in a liter of distilled H2O. Gels were processed at 200V for 60 mins at room temperature, in the dark. […] Gel data were analyzed using ImageJ software. […] Then, percent cleavage was calculated by using fluorescence intensity of the cleaved 23-mer DNA strand divided by the sum of the fluorescence bands (23mer+40mer DNA strands)*100 for untreated and treated conditions. […]

human UDG, sequence (P13051 whole entry): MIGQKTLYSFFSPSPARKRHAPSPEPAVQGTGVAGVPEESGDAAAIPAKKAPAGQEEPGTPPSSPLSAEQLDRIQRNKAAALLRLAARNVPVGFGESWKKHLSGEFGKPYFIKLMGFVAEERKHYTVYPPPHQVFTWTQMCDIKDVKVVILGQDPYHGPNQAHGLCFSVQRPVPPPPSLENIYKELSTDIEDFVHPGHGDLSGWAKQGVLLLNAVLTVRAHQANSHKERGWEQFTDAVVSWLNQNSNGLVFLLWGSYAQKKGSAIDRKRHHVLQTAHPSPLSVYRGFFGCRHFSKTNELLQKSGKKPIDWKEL

Compound: O=C(O)C1=CC(=C(c2ccc(O)c(C(=O)O)c2)c2ccc(O)c(C(=O)O)c2)C=CC1=O [ATA, aurintricarboxylic acid]
- protein aggregation onset (scattering) (human UDG; UDG in the presence of ATA vs UDG alone): induced protein aggregation at lower temperatures than UDG alone
- mean melting temperature of UDG in the presence of ATA (human UDG; nanoDSF, 330 nm, UDG alone 53.5 °C): 51 °C
- effect on 23mer ssDNA generation ([1]; 12.5 μM ATA, DLD1 cell extracts): minimal effect
- inhibition of 23mer ssDNA appearance ([1]; 50 μM ATA, extracts where UDG was present): near-complete inhibition; also recorded: completely inhibited
- IC50 ([1]; read-out: IC50 in DLD1 UDG containing cell lysate): ~32.5 µM
